This is an account of results in PubChem BioAssay AID2644 (Southern Research Specialized Biocontainment Screening …, 2010).

Calls of active or inactive are those of the source.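 Rule for the calls: active = compounds cutting the HIV-1 infection reporter signal by at least 50%; inactive = the rest.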 A value given as a limit tells only on which side of the number the result lay.

This assay relates to MAGI-CCR5 cells, HIV-1 Ba-L, beta-gal luminescence, 48 h. Nature of the assay: anti-HIV-1 activity in MAGI-CCR5 cells – cell-based, HIV-1 Ba-L, beta-gal reporter, 5%/10% serum, SAR follow-up (AID 2644).
[1] abbreviates: measured here: antiviral IC50 in 10% serum.

The term IC50 denotes the concentration that gives 50% inhibition. For the compound `Cc1c2c(=O)n(-c3nc4ccccc4s3)nc-2cc(O)n1Cc1ccccc1`, the half-inhibitory concentration (IC50) is 12.5 µM. Under setting [1], the 50% inhibitory concentration (IC50) is 11.1 µM.
For the compound `N#C/C(=C\c1ccc(O)c([N+](=O)[O-])c1)c1nc2ccccc2s1`, the IC50 was 7.96 µM. Moreover, the concentration for half-maximal inhibition (IC50) under setting [1] was 15.1 µM.
The like results for `CCC(Sc1nc2ccsc2c(=O)n1Cc1ccc(C(=O)O)cc1)C(=O)Nc1ccc(C)c(Cl)c1` (configuration not stated) were, in that order, 14.6 µM and 37.8 µM.
As to `O=C(O)c1ccccc1N=Nc1c(O)[nH]c2ccc([N+](=O)[O-])cc12`, the IC50 was > 100 µM (inactive). The compound also had an IC50 under setting [1] greater than 100 µM.
The like results for `O=[N+]([O-])c1cc([N+](=O)[O-])c2oc(-c3ccccc3)c(Br)c2c1O` were, in that order, 4.46 µM and 9.38 µM.
For the compound `Cc1c(Cl)cccc1NS(=O)(=O)c1ccc2c(c1)C1C=CCC1C(c1ccc(C(=O)O)cc1)N2` (configuration not stated), the IC50 is 16.7 µM. Also, the IC50 under setting [1] is 40.6 µM.
The like results for `CSc1nnc(-c2ccccc2N=Cc2c(C)[nH]n(-c3ccc4ccccc4c3)c2=O)c(=O)[nH]1` were, in that order, 53.1 µM and greater than 100 µM.
Regarding `CCOC(=O)c1sc(N2C(=O)C(O)=C(C(=O)c3ccc(C)o3)C2c2cccc([N+](=O)[O-])c2)nc1C` (configuration not stated), the half-inhibitory concentration (IC50) was 20.6 µM. The compound further came in with a 50% inhibitory concentration (IC50) under setting [1] of 18.5 µM.
Taken in the same sequence, the figures for `COc1cc(/C=N/NS(=O)(=O)c2ccc3ccccc3c2)ccc1OCc1ccc(C(=O)O)cc1` were > 100 µM (inactive) and greater than 100 µM.
Taken in the same sequence, the figures for `O=C(O)CCCN1C(=O)/C(=C/c2ccc(-c3nc4ccccc4s3)o2)SC1=S` were 80.8 µM and 95.4 µM.
Taken in the same sequence, the figures for `COC(=O)c1sc(-c2ccc(C(C)(C)C)cc2)cc1NC(=O)c1ccccc1C(=O)O` were 49.9 µM and 54.9 µM.
`CCOC(=O)C1=C(C)N=c2sc(=Cc3ccc(OCC(=O)O)cc3)c(=O)n2C1c1ccc(OC(C)C)cc1` (configuration not stated): the half-inhibitory concentration (IC50) is 20.9 µM. The half-inhibitory concentration (IC50) under setting [1] was determined as 26 µM.
Taken in the same sequence, the figures for `O=C1NC(=S)N(c2ccc(F)cc2)C(=O)/C1=C\c1ccoc1` were > 100 µM (inactive) and greater than 100 µM.
The like results for `Oc1c(Cl)cc(Cl)c(Cl)c1Cc1c(O)c(Cl)cc(Cl)c1Cl` were, in that order, 49.3 µM and greater than 100 µM.
Taken in the same sequence, the figures for `COc1cc(/C=C2\SC(=O)N(c3ccccc3Cl)C2=O)cc([N+](=O)[O-])c1O` were 13.9 µM and 23.8 µM.
For `CCC(C)(C)C1CCc2c(sc(NC(=O)c3ccccc3C(=O)O)c2C#N)C1` (configuration not stated), the IC50 was > 100 µM (inactive). The same compound displayed a 50% inhibitory concentration (IC50) under setting [1] greater than 100 µM.
Taken in the same sequence, the figures for `CC(C)(C)c1cc(-c2csc(Nc3ccccc3)[n+]2Cc2ccc(C(=O)O)cc2)cc(C(C)(C)C)c1O` were 7.17 µM and 12.3 µM.
For the compound `CCOc1cc(/C=C2\SC(=O)N(CC(=O)Nc3ccccc3F)C2=O)cc([N+](=O)[O-])c1O`, the concentration for half-maximal inhibition (IC50) was 21 µM. Besides, under setting [1], the half-inhibitory concentration (IC50) was 26.3 µM.
The like results for `CC(C)NC(=O)c1sc(=S)n2c1[nH]c(=O)c1ccc(C(=O)NCCc3ccc(Cl)cc3)cc12` were, in that order, 35.1 µM and 63.4 µM.
The like results for `O=C(N/N=C/c1c(O)n(C2CCCCC2)c(=S)[nH]c1=O)c1ccccc1O` were, in that order, 46.4 µM and 45 µM.
Taken in the same sequence, the figures for `N#C/C(=C\c1ccc(OCc2ccc(Cl)cc2)cc1)C(=O)Nc1cccc(C(=O)O)c1` were > 100 µM (inactive) and greater than 100 µM.
